# Source: publication PMC5218480 (PLoS ONE, 2017)
# System: MV-4-11 cells
# Experiment: Gene expression microarray analysis (Affymetrix PrimeView) and GSEA
# Type: cell-based, human
# Set-up: RFU PODN (11730768_x_at) / Fold change /veh PODN (11730768_x_at) / RFU LINC00158 (11744669_a_at) / Fold change /veh LINC00158 (11744669_a_at) / RFU DUSP10 (11751237_a_at) / Fold change /veh DUSP10 (11751237_a_at) / RFU ID3 (11757404_x_at) / Fold change /veh ID3 (11757404_x_at) / RFU PLEKHG5 (11737974_s_at) / Fold change /veh PLEKHG5 (11737974_s_at) / RFU LRRC4B (11730491_at) / Fold change /veh LRRC4B (11730491_at) / RFU GIMAP4 (11747438_a_at) / Fold change /veh GIMAP4 (11747438_a_at) / RFU KRT8 (11758183_x_at) / Fold change /veh KRT8 (11758183_x_at) / RFU CNN1 (11734310_a_at) / Fold change /veh CNN1 (11734310_a_at) / RFU VPS37D (11726825_at) / Fold change /veh VPS37D (11726825_at) / RFU C10orf10 (11716522_x_at) / Fold change /veh C10orf10 (11716522_x_at) / RFU KIR2DL2 /// KIR2DL4 /// KIR2DL5A /// KIR2DL5B /// KIR2DS1 /// KIR2DS2 /// KIR2DS3 /// KIR2DS4 /// KIR3DL3 /// KIR3DL3 /// KIR3DS1 (11738374_at) / Fold change /veh KIR2DL2 /// KIR2DL4 /// KIR2DL5A /// KIR2DL5B /// KIR2DS1 /// KIR2DS2 /// KIR2DS3 /// KIR2DS4 /// KIR3DL3 /// KIR3DL3 /// KIR3DS1 (11738374_at) / RFU C1QL1 (11718748_at) / Fold change /veh C1QL1 (11718748_at) / RFU TMPRSS4 (11747572_a_at) / Fold change /veh TMPRSS4 (11747572_a_at) / RFU HAMP (11756126_x_at) / Fold change /veh HAMP (11756126_x_at) / RFU RNFT2 (11725882_a_at) / Fold change /veh RNFT2 (11725882_a_at) / RFU NR4A2 (11747474_a_at) / Fold change /veh NR4A2 (11747474_a_at) / RFU ABCC12 (11746883_a_at) / Fold change /veh ABCC12 (11746883_a_at) / RFU TMEM136 (11760407_x_at) / Fold change /veh TMEM136 (11760407_x_at) / RFU CLDN22 /// WWC2 (11732394_at) / Fold change /veh CLDN22 /// WWC2 (11732394_at) / RFU HLA-DPB1 (11760878_x_at) / Fold change /veh HLA-DPB1 (11760878_x_at) / RFU SPINT1 (11716480_a_at) / Fold change /veh SPINT1 (11716480_a_at) / RFU GAP43 (11754022_s_at) / Fold change /veh GAP43 (11754022_s_at) / RFU A4GNT (11735810_at) / Fold change /veh A4GNT (11735810_at) / RFU PRB3 (11715151_x_at) / Fold change /veh PRB3 (11715151_x_at) / RFU TUBB4B (11761932_at) / Fold change /veh TUBB4B (11761932_at) / RFU CAPN14 (11732068_a_at) / Fold change /veh CAPN14 (11732068_a_at) / RFU TMCC2 (11721928_a_at) / Fold change /veh TMCC2 (11721928_a_at) / RFU IRGQ (11745062_a_at) / Fold change /veh IRGQ (11745062_a_at) / RFU FAM174B (11720279_a_at) / Fold change /veh FAM174B (11720279_a_at) / RFU TMPRSS4 (11748680_a_at) / Fold change /veh TMPRSS4 (11748680_a_at) / RFU FAM212B (11763350_a_at) / Fold change /veh FAM212B (11763350_a_at) / RFU PLEKHG5 (11743358_a_at) / Fold change /veh PLEKHG5 (11743358_a_at) / RFU ZSCAN30 (11745921_a_at) / Fold change /veh ZSCAN30 (11745921_a_at) / RFU CMKLR1 (11741424_a_at) / Fold change /veh CMKLR1 (11741424_a_at) / RFU LOC101060620 /// MAPK8IP1 (11723275_at) / Fold change /veh LOC101060620 /// MAPK8IP1 (11723275_at) / RFU SPTSSB (11747773_x_at) / Fold change /veh SPTSSB (11747773_x_at) / RFU PRSS12 (11739890_at) / Fold change /veh PRSS12 (11739890_at) / RFU BIN1 (11741810_x_at) / Fold change /veh BIN1 (11741810_x_at) / RFU WNT11 (11732464_a_at) / Fold change /veh WNT11 (11732464_a_at) / RFU C10orf10 (11716521_a_at) / Fold change /veh C10orf10 (11716521_a_at) / RFU C5orf56 (11738089_at) / Fold change /veh C5orf56 (11738089_at) / RFU CYB561 (11721691_x_at) / Fold change /veh CYB561 (11721691_x_at) / RFU ANKRD19P (11752326_a_at) / Fold change /veh ANKRD19P (11752326_a_at) / RFU OR2T12 /// OR2T33 /// OR2T8 (11738714_s_at) / Fold change /veh OR2T12 /// OR2T33 /// OR2T8 (11738714_s_at) / RFU VCAN (11748164_a_at) / Fold change /veh VCAN (11748164_a_at) / RFU JSRP1 (11732532_at) / Fold change /veh JSRP1 (11732532_at) / RFU KRTAP10-11 (11738290_x_at) / Fold change /veh KRTAP10-11 (11738290_x_at) / RFU MYO3A (11730013_a_at) / Fold change /veh MYO3A (11730013_a_at) / RFU EBF3 (11725865_a_at) / Fold change /veh EBF3 (11725865_a_at) / RFU CAMK2N1 (11719241_x_at) / Fold change /veh CAMK2N1 (11719241_x_at) / RFU C5orf56 (11738088_a_at) / Fold change /veh C5orf56 (11738088_a_at) / RFU OLFML3 (11715873_a_at) / Fold change /veh OLFML3 (11715873_a_at) / RFU LOC100653217 /// NTM (11731650_a_at) / Fold change /veh LOC100653217 /// NTM (11731650_a_at) / RFU MAPK11 (11762145_a_at) / Fold change /veh MAPK11 (11762145_a_at) / RFU FIZ1 (11724087_x_at) / Fold change /veh FIZ1 (11724087_x_at) / RFU OASL (11726364_x_at) / Fold change /veh OASL (11726364_x_at) / RFU SOX15 (11748057_x_at) / Fold change /veh SOX15 (11748057_x_at) / RFU CD79A (11719716_a_at) / Fold change /veh CD79A (11719716_a_at) / RFU HIST1H1D (11736915_at) / Fold change /veh HIST1H1D (11736915_at) / RFU CASKIN2 (11723855_a_at) / Fold change /veh CASKIN2 (11723855_a_at) / RFU LOC730098 (11760151_x_at) / Fold change /veh LOC730098 (11760151_x_at) / RFU OR4N2 (11742367_at) / Fold change /veh OR4N2 (11742367_at) / RFU PRRT2 (11749266_a_at) / Fold change /veh PRRT2 (11749266_a_at) / RFU SNX32 (11753110_a_at) / Fold change /veh SNX32 (11753110_a_at) / RFU CDHR5 (11726645_a_at) / Fold change /veh CDHR5 (11726645_a_at) / RFU RCAN1 (11760418_a_at) / Fold change /veh RCAN1 (11760418_a_at) / RFU FAM167A (11723789_a_at) / Fold change /veh FAM167A (11723789_a_at) / RFU FAM26E (11764081_at) / Fold change /veh FAM26E (11764081_at) / RFU ISYNA1 (11749810_s_at) / Fold change /veh ISYNA1 (11749810_s_at) / RFU ACY1 (11761880_at) / Fold change /veh ACY1 (11761880_at) / RFU 11764098_at / Fold change /veh 11764098_at / RFU SAMD14 (11745864_x_at) / Fold change /veh SAMD14 (11745864_x_at) / RFU NPB (11741838_a_at) / Fold change /veh NPB (11741838_a_at) / RFU TMPRSS6 (11731388_a_at) / Fold change /veh TMPRSS6 (11731388_a_at) / RFU KRTAP10-2 (11738614_at) / Fold change /veh KRTAP10-2 (11738614_at) / RFU ARHGAP8 /// PRR5-ARHGAP8 (11727945_x_at) / Fold change /veh ARHGAP8 /// PRR5-ARHGAP8 (11727945_x_at) / RFU KRTAP5-7 /// NADSYN1 (11734609_at) / Fold change /veh KRTAP5-7 /// NADSYN1 (11734609_at) / RFU RASL12 (11751679_a_at) / Fold change /veh RASL12 (11751679_a_at) / RFU CDKN2B (11736163_a_at) / Fold change /veh CDKN2B (11736163_a_at) / RFU PRF1 (11729649_at) / Fold change /veh PRF1 (11729649_at) / RFU, ZNF638 /// ZNF638-IT1 / Fold change vs veh, ZNF638 /// ZNF638-IT1 / RFU, PANK3 / Fold change vs veh, PANK3 / RFU, SH3YL1 / Fold change vs veh, SH3YL1 / RFU, ZEB2 / Fold change vs veh, ZEB2 / RFU, NRIP1 / Fold change vs veh, NRIP1 / RFU, PTTG1IP / Fold change vs veh, PTTG1IP / RFU, CAPN2 / Fold change vs veh, CAPN2 / RFU, MED14 / Fold change vs veh, MED14 / RFU, SNORA58 / Fold change vs veh, SNORA58 / RFU, C1orf63 / Fold change vs veh, C1orf63 / RFU, LRRFIP1 / Fold change vs veh, LRRFIP1 / RFU, NDUFAF7 / Fold change vs veh, NDUFAF7 / RFU, SLC12A2 / Fold change vs veh, SLC12A2 / RFU, IBTK / Fold change vs veh, IBTK / RFU, ESF1 / Fold change vs veh, ESF1 / Fold change vs veh, TMEM50B / RFU, TAOK1 / Fold change vs veh, TAOK1 / RFU, ACBD3 / Fold change vs veh, ACBD3 / RFU, TMA16 / Fold change vs veh, TMA16 / RFU, RWDD3 / Fold change vs veh, RWDD3 / RFU, BCAT1 / Fold change vs veh, BCAT1 / RFU, EDEM3 / Fold change vs veh, EDEM3 / RFU, TMEM33 / Fold change vs veh, TMEM33 / RFU, WDR75 / Fold change vs veh, WDR75 / RFU, AHCTF1 / Fold change vs veh, AHCTF1 / RFU, TFRC / Fold change vs veh, TFRC / RFU, ZDHHC17 / Fold change vs veh, ZDHHC17 / RFU, NOM1 / Fold change vs veh, NOM1 / RFU, ARL8B / Fold change vs veh, ARL8B / RFU, ZBTB11 / Fold change vs veh, ZBTB11 / RFU, TAMM41 / Fold change vs veh, TAMM41 / RFU, KIAA1704 /// LOC100996395 / Fold change vs veh, KIAA1704 /// LOC100996395 / RFU, ING1 / Fold change vs veh, ING1 / RFU, TRMT61B / Fold change vs veh, TRMT61B / RFU, FUBP3 / Fold change vs veh, FUBP3 / RFU, TP53 / Fold change vs veh, TP53 / RFU, TNKS2 / Fold change vs veh, TNKS2 / RFU, ZFP14 / Fold change vs veh, ZFP14 / RFU, ACTR2 / Fold change vs veh, ACTR2 / RFU, PPP3R1 / Fold change vs veh, PPP3R1 / RFU, PIK3R1 / Fold change vs veh, PIK3R1 / RFU, HNRNPA1 / Fold change vs veh, HNRNPA1 / RFU, RNF170 / Fold change vs veh, RNF170 / RFU, ZNF28 / Fold change vs veh, ZNF28 / RFU, RNGTT / Fold change vs veh, RNGTT / RFU, OGT / Fold change vs veh, OGT / RFU, BRD1 / Fold change vs veh, BRD1 / RFU, MARS / Fold change vs veh, MARS / RFU, ZNF655 / Fold change vs veh, ZNF655 / RFU, FAHD1 / Fold change vs veh, FAHD1 / RFU, BDP1 / Fold change vs veh, BDP1 / RFU, LRRCC1 / Fold change vs veh, LRRCC1 / RFU, ARID1A / Fold change vs veh, ARID1A / RFU, ZNF146 / Fold change vs veh, ZNF146 / RFU, ZNF330 / Fold change vs veh, ZNF330 / RFU, GPN3 / Fold change vs veh, GPN3 / RFU, C9orf123 / Fold change vs veh, C9orf123 / RFU, N4BP2L2 / Fold change vs veh, N4BP2L2 / RFU, ARFIP1 / Fold change vs veh, ARFIP1 / RFU, FAM179B / Fold change vs veh, FAM179B / RFU, BCL10 / Fold change vs veh, BCL10 / RFU, UHRF1BP1L / Fold change vs veh, UHRF1BP1L / RFU, BET1 / Fold change vs veh, BET1 / RFU, CNOT2 / Fold change vs veh, CNOT2 / RFU, ZNF268 / Fold change vs veh, ZNF268 / Fold change vs veh, ZNF507 / RFU, DGCR2 / Fold change vs veh, DGCR2 / RFU, WDSUB1 / Fold change vs veh, WDSUB1 / Fold change vs veh, HSP90B1 /// MIR3652 / RFU, ADSS / Fold change vs veh, ADSS / RFU, GK / Fold change vs veh, GK / RFU, ZNF148 / Fold change vs veh, ZNF148 / RFU, TAF9 / Fold change vs veh, TAF9 / RFU, SLC1A5 / Fold change vs veh, SLC1A5 / RFU, SLMO2 / Fold change vs veh, SLMO2 / RFU, ABCC4 / Fold change vs veh, ABCC4 / RFU, LOC101060439 /// RAP1B / Fold change vs veh, LOC101060439 /// RAP1B / RFU, RFX7 / Fold change vs veh, RFX7 / RFU, GTPBP10 / Fold change vs veh, GTPBP10 / RFU, CNEP1R1 / Fold change vs veh, CNEP1R1 / RFU, BIVM-ERCC5 /// ERCC5 / Fold change vs veh, BIVM-ERCC5 /// ERCC5 / RFU, ILF3 / Fold change vs veh, ILF3 / RFU 11762660_at / Fold change /veh 11762660_at / RFU VCAN (11757783_s_at) / Fold change /veh VCAN (11757783_s_at) / RFU DDX43 (11728927_at) / Fold change /veh DDX43 (11728927_at) / RFU KRT8 (11758188_x_at) / Fold change /veh KRT8 (11758188_x_at) / RFU NKD1 (11759106_at) / Fold change /veh NKD1 (11759106_at) / RFU SRD5A1 (11742802_a_at) / Fold change /veh SRD5A1 (11742802_a_at) / RFU TPSAB1 /// TPSB2 (11721975_s_at) / Fold change /veh TPSAB1 /// TPSB2 (11721975_s_at) / RFU GSTM3 (11746129_a_at) / Fold change /veh GSTM3 (11746129_a_at) / RFU IL23R (11737362_x_at) / Fold change /veh IL23R (11737362_x_at) / RFU TMEM51 (11727254_a_at) / Fold change /veh TMEM51 (11727254_a_at) / RFU PIWIL2 (11732686_x_at) / Fold change /veh PIWIL2 (11732686_x_at) / RFU ORM1 (11744905_x_at) / Fold change /veh ORM1 (11744905_x_at) / RFU CCDC152 (11743942_at) / Fold change /veh CCDC152 (11743942_at) / RFU ECM1 (11717891_a_at) / Fold change /veh ECM1 (11717891_a_at) / RFU IL23R (11748794_a_at) / Fold change /veh IL23R (11748794_a_at) / RFU TNFAIP8L3 (11732012_x_at) / Fold change /veh TNFAIP8L3 (11732012_x_at) / RFU MBOAT4 (11741988_at) / Fold change /veh MBOAT4 (11741988_at) / RFU 11764193_at / Fold change /veh 11764193_at / RFU TMEM53 (11763286_at) / Fold change /veh TMEM53 (11763286_at) / RFU MAGEB2 (11727129_at) / Fold change /veh MAGEB2 (11727129_at) / RFU TMEM200A (11744735_a_at) / Fold change /veh TMEM200A (11744735_a_at) / RFU CCDC152 (11751479_a_at) / Fold change /veh CCDC152 (11751479_a_at) / RFU FAM211A (11726209_a_at) / Fold change /veh FAM211A (11726209_a_at) / RFU RGS16 (11746705_a_at) / Fold change /veh RGS16 (11746705_a_at) / RFU VCAN (11755009_s_at) / Fold change /veh VCAN (11755009_s_at) / RFU RHOB (11743442_s_at) / Fold change /veh RHOB (11743442_s_at) / RFU RGS16 (11720943_a_at) / Fold change /veh RGS16 (11720943_a_at) / RFU RGS16 (11720944_at) / Fold change /veh RGS16 (11720944_at) / RFU, VPS4B / Fold change vs veh, VPS4B / RFU, CREB1 / Fold change vs veh, CREB1 / RFU, DNAJC13 / Fold change vs veh, DNAJC13 / RFU, GNAQ / Fold change vs veh, GNAQ / RFU, CDK5R1 / Fold change vs veh, CDK5R1 / RFU, ZRANB3 / Fold change vs veh, ZRANB3 / RFU, CUL4A / Fold change vs veh, CUL4A / RFU, CCNY / Fold change vs veh, CCNY / RFU, UFL1 / Fold change vs veh, UFL1 / RFU, COG3 / Fold change vs veh, COG3 / RFU, DIAPH2 / Fold change vs veh, DIAPH2 / RFU, SKA2 / Fold change vs veh, SKA2 / RFU, AFF3 / Fold change vs veh, AFF3 / RFU, LMF1 / Fold change vs veh, LMF1 / RFU, IPO11 / Fold change vs veh, IPO11 / RFU, DFFB / Fold change vs veh, DFFB / RFU, FOXP1 / Fold change vs veh, FOXP1 / RFU, CARD8 / Fold change vs veh, CARD8 / RFU, STRN3 / Fold change vs veh, STRN3 / RFU, ADK / Fold change vs veh, ADK / RFU, RASSF2 / Fold change vs veh, RASSF2 / RFU, WIPF1 / Fold change vs veh, WIPF1 / RFU, LARP1B / Fold change vs veh, LARP1B / RFU, RASA1 / Fold change vs veh, RASA1 / RFU, RB1 / Fold change vs veh, RB1 / RFU, PPFIA1 / Fold change vs veh, PPFIA1 / RFU, MAT2A / Fold change vs veh, MAT2A / RFU, CCT5 / Fold change vs veh, CCT5 / RFU, WDR92 / Fold change vs veh, WDR92 / RFU, CUX1 / Fold change vs veh, CUX1 / RFU, TTC7A / Fold change vs veh, TTC7A / RFU, TMEM135 / Fold change vs veh, TMEM135 / RFU, DEPTOR / Fold change vs veh, DEPTOR / RFU, CPM / Fold change vs veh, CPM / RFU, DNAJB6 / Fold change vs veh, DNAJB6 / RFU, CACNA2D3 / Fold change vs veh, CACNA2D3 / RFU, DTX4 / Fold change vs veh, DTX4 / RFU, TFCP2 / Fold change vs veh, TFCP2 / RFU, GMCL1 /// GMCL1P1 / Fold change vs veh, GMCL1 /// GMCL1P1 / RFU, AEBP2 / Fold change vs veh, AEBP2 / RFU, SNHG1 /// SNORD22 /// SNORD25 /// SNORD26 /// SNORD27 /// SNORD28 /// SNORD29 /// SNORD31 / Fold change vs veh, SNHG1 /// SNORD22 /// SNORD25 /// SNORD26 /// SNORD27 /// SNORD28 /// SNORD29 /// SNORD31 / Fold change (Aza/veh), C12orf56 (ProbeSet 11735607_a_at) / Fold change (ACY-1035/veh), C12orf56 (ProbeSet 11735607_a_at) / Fold change (Aza/veh), FGFR1OP (ProbeSet 11751329_s_at) / Fold change (ACY-1035/veh), FGFR1OP (ProbeSet 11751329_s_at) / Fold change (Aza/veh), VPS36 (ProbeSet 11739960_a_at) / Fold change (ACY-1035/veh), VPS36 (ProbeSet 11739960_a_at) / RFU SYPL1 (11715823_x_at) / Fold change /veh SYPL1 (11715823_x_at) / RFU IGFBP7 (11715501_s_at) / Fold change /veh IGFBP7 (11715501_s_at) / RFU REEP3 (11722064_at) / Fold change /veh REEP3 (11722064_at) / RFU IGLL1 (11728026_x_at) / Fold change /veh IGLL1 (11728026_x_at): dose or concentration left out as unconfirmed
# Conditions: ProbeSet 11720566_at; LIST D
compound,measurement,value
Nc1ccc(-c2cccs2)cc1NC(=O)c1ccc2c(c1)cc(C1CC1)n2CCN1CCOCC1 [ACY-1035],"Fold change vs veh, BCAT1",0.85
